What was measured:
Assay type in all cases: functional
Details in all cases: read-out: GI
Fusarium graminearum = experiment: Fungicidal activity against Fusarium graminearum assessed as growth inhibition at 50 ppm after 48 hr relative to untreated control
Aspergillus niger = experiment: Fungicidal activity against Aspergillus niger assessed as growth inhibition at 50 ppm after 48 hr relative to untreated control
Pleurotus ostreatus = experiment: Fungicidal activity against Pleurotus ostreatus assessed as growth inhibition at 50 ppm after 48 hr relative to untreated control
Pyricularia oryzae = experiment: Fungicidal activity against Magnaporthe oryzae assessed as growth inhibition at 50 ppm after 48 hr relative to untreated control
Gaeumannomyces graminis = experiment: Fungicidal activity against Gaeumannomyces graminis assessed as growth inhibition at 50 ppm after 48 hr relative to untreated control
Botrytis cinerea = experiment: Fungicidal activity against Botryotinia fuckeliana assessed as growth inhibition at 50 ppm after 48 hr relative to untreated control
Pythium aphanidermatum = experiment: Fungicidal activity against Pythium aphanidermatum assessed as growth inhibition at 50 ppm after 48 hr relative to untreated control

## N=C1S/C(=C\c2cccc([N+](=O)[O-])c2)C(=O)N1c1nc(-c2cc(F)c(Cl)cc2Cl)cs1
Fusarium graminearum
  inhibition of growth at 50 ppm: 45.4%
Aspergillus niger
  inhibition of growth at 50 ppm: 69.3%
Pleurotus ostreatus
  inhibition of growth at 50 ppm: 32.6%
Pyricularia oryzae
  inhibition of growth at 50 ppm: 11.7%
Gaeumannomyces graminis
  inhibition of growth at 50 ppm: 0%
Botrytis cinerea
  inhibition of growth at 50 ppm: 24.7%
Pythium aphanidermatum
  inhibition of growth at 50 ppm: 33.8%

## N=C1S/C(=C\c2ccccc2[N+](=O)[O-])C(=O)N1c1nc(-c2ccc(Cl)cc2)cs1
Fusarium graminearum
  inhibition of growth at 50 ppm: 58.8%
Aspergillus niger
  inhibition of growth at 50 ppm: 60.8%
Pleurotus ostreatus
  inhibition of growth at 50 ppm: 84.8%
Pyricularia oryzae
  inhibition of growth at 50 ppm: 14.8%
Gaeumannomyces graminis
  inhibition of growth at 50 ppm: 0%
Botrytis cinerea
  inhibition of growth at 50 ppm: 66.7%
Pythium aphanidermatum
  inhibition of growth at 50 ppm: 12.5%

## N=C1S/C(=C\c2ccccc2Cl)C(=O)N1c1nc(-c2ccccc2)cs1
Fusarium graminearum
  inhibition of growth at 50 ppm: 37.4%
Aspergillus niger
  inhibition of growth at 50 ppm: 23.6%
Pleurotus ostreatus
  inhibition of growth at 50 ppm: 0%
Pyricularia oryzae
  inhibition of growth at 50 ppm: 0%
Gaeumannomyces graminis
  inhibition of growth at 50 ppm: 0%
Botrytis cinerea
  inhibition of growth at 50 ppm: 27.5%
Pythium aphanidermatum
  inhibition of growth at 50 ppm: 17.2%

## N=C1S/C(=C\c2cccc([N+](=O)[O-])c2)C(=O)N1c1nc(-c2ccc([N+](=O)[O-])cc2)cs1
Fusarium graminearum
  inhibition of growth at 50 ppm: 51.6%
Aspergillus niger
  inhibition of growth at 50 ppm: 52.3%
Pleurotus ostreatus
  inhibition of growth at 50 ppm: 29.8%
Pyricularia oryzae
  inhibition of growth at 50 ppm: 0%
Gaeumannomyces graminis
  inhibition of growth at 50 ppm: 0%
Botrytis cinerea
  inhibition of growth at 50 ppm: 4.7%
Pythium aphanidermatum
  inhibition of growth at 50 ppm: 0%

## N=C1SCC(=O)N1c1nc(-c2ccc(Cl)cc2Cl)cs1
Fusarium graminearum
  inhibition of growth at 50 ppm: 48.6%
Aspergillus niger
  inhibition of growth at 50 ppm: 62.8%
Pleurotus ostreatus
  inhibition of growth at 50 ppm: 97.2%
Pyricularia oryzae
  inhibition of growth at 50 ppm: 79.4%
Gaeumannomyces graminis
  inhibition of growth at 50 ppm: 86.7%
Botrytis cinerea
  inhibition of growth at 50 ppm: 0%
Pythium aphanidermatum
  inhibition of growth at 50 ppm: 0%

## N=C1S/C(=C\c2cccc([N+](=O)[O-])c2)C(=O)N1c1nc(-c2ccccc2)cs1
Fusarium graminearum
  inhibition of growth at 50 ppm: 20.6%
Aspergillus niger
  inhibition of growth at 50 ppm: 49.7%
Pleurotus ostreatus
  inhibition of growth at 50 ppm: 5.9%
Pyricularia oryzae
  inhibition of growth at 50 ppm: 3.2%
Gaeumannomyces graminis
  inhibition of growth at 50 ppm: 0%
Botrytis cinerea
  inhibition of growth at 50 ppm: 0%
Pythium aphanidermatum
  inhibition of growth at 50 ppm: 25%

## N=C1S/C(=C\c2ccccc2)C(=O)N1c1nc(-c2cc(F)c(Cl)cc2Cl)cs1
Fusarium graminearum
  inhibition of growth at 50 ppm: 38.1%
Aspergillus niger
  inhibition of growth at 50 ppm: 47.7%
Pleurotus ostreatus
  inhibition of growth at 50 ppm: 11.5%
Pyricularia oryzae
  inhibition of growth at 50 ppm: 4.1%
Gaeumannomyces graminis
  inhibition of growth at 50 ppm: 0%
Botrytis cinerea
  inhibition of growth at 50 ppm: 28.7%
Pythium aphanidermatum
  inhibition of growth at 50 ppm: 0%

## N=C1S/C(=C\c2ccccc2[N+](=O)[O-])C(=O)N1c1nc(-c2ccc([N+](=O)[O-])cc2)cs1
Fusarium graminearum
  inhibition of growth at 50 ppm: 24.7%
Aspergillus niger
  inhibition of growth at 50 ppm: 62.8%
Pleurotus ostreatus
  inhibition of growth at 50 ppm: 7.2%
Pyricularia oryzae
  inhibition of growth at 50 ppm: 3.2%
Gaeumannomyces graminis
  inhibition of growth at 50 ppm: 0%
Botrytis cinerea
  inhibition of growth at 50 ppm: 33.3%
Pythium aphanidermatum
  inhibition of growth at 50 ppm: 16.3%

## N=C1S/C(=C\c2cccc([N+](=O)[O-])c2)C(=O)N1c1nc(-c2ccc(Cl)cc2)cs1
Fusarium graminearum
  inhibition of growth at 50 ppm: 61.9%
Aspergillus niger
  inhibition of growth at 50 ppm: 58.8%
Pleurotus ostreatus
  inhibition of growth at 50 ppm: 84.1%
Pyricularia oryzae
  inhibition of growth at 50 ppm: 26.5%
Gaeumannomyces graminis
  inhibition of growth at 50 ppm: 0%
Botrytis cinerea
  inhibition of growth at 50 ppm: 71.3%
Pythium aphanidermatum
  inhibition of growth at 50 ppm: 16.3%

## N=C1S/C(=C\c2ccccc2[N+](=O)[O-])C(=O)N1c1nc(-c2ccccc2)cs1
Fusarium graminearum
  inhibition of growth at 50 ppm: 61.9%
Aspergillus niger
  inhibition of growth at 50 ppm: 54.3%
Pleurotus ostreatus
  inhibition of growth at 50 ppm: 84.1%
Pyricularia oryzae
  inhibition of growth at 50 ppm: 20.2%
Gaeumannomyces graminis
  inhibition of growth at 50 ppm: 0%
Botrytis cinerea
  inhibition of growth at 50 ppm: 64.7%
Pythium aphanidermatum
  inhibition of growth at 50 ppm: 3.8%

## N=C1S/C(=C\c2ccccc2[N+](=O)[O-])C(=O)N1c1nc(-c2cc(F)c(Cl)cc2Cl)cs1
Fusarium graminearum
  inhibition of growth at 50 ppm: 48.5%
Aspergillus niger
  inhibition of growth at 50 ppm: 49.7%
Pleurotus ostreatus
  inhibition of growth at 50 ppm: 15.2%
Pyricularia oryzae
  inhibition of growth at 50 ppm: 50.4%
Gaeumannomyces graminis
  inhibition of growth at 50 ppm: 0%
Botrytis cinerea
  inhibition of growth at 50 ppm: 2%
Pythium aphanidermatum
  inhibition of growth at 50 ppm: 0%

## N=C1SCC(=O)N1c1nc(-c2ccc([N+](=O)[O-])cc2)cs1
Fusarium graminearum
  inhibition of growth at 50 ppm: 2.2%
Aspergillus niger
  inhibition of growth at 50 ppm: 56.2%
Pleurotus ostreatus
  inhibition of growth at 50 ppm: 12.4%
Pyricularia oryzae
  inhibition of growth at 50 ppm: 38.1%
Gaeumannomyces graminis
  inhibition of growth at 50 ppm: 26.7%
Botrytis cinerea
  inhibition of growth at 50 ppm: 0%
Pythium aphanidermatum
  inhibition of growth at 50 ppm: 8.8%

## N=C1S/C(=C\c2ccccc2Cl)C(=O)N1c1nc(-c2ccc([N+](=O)[O-])cc2)cs1
Fusarium graminearum
  inhibition of growth at 50 ppm: 28%
Aspergillus niger
  inhibition of growth at 50 ppm: 42.7%
Pleurotus ostreatus
  inhibition of growth at 50 ppm: 0%
Pyricularia oryzae
  inhibition of growth at 50 ppm: 2.1%
Gaeumannomyces graminis
  inhibition of growth at 50 ppm: 37.1%
Botrytis cinerea
  inhibition of growth at 50 ppm: 60.8%
Pythium aphanidermatum
  inhibition of growth at 50 ppm: 28%

## N=C1SCC(=O)N1c1nc(-c2ccccc2)cs1
Fusarium graminearum
  inhibition of growth at 50 ppm: 21.1%
Aspergillus niger
  inhibition of growth at 50 ppm: 54.3%
Pleurotus ostreatus
  inhibition of growth at 50 ppm: 82.6%
Pyricularia oryzae
  inhibition of growth at 50 ppm: 58.8%
Gaeumannomyces graminis
  inhibition of growth at 50 ppm: 60%
Botrytis cinerea
  inhibition of growth at 50 ppm: 3.5%
Pythium aphanidermatum
  inhibition of growth at 50 ppm: 8.8%

## N=C1SCC(=O)N1c1nc(-c2ccc(Cl)cc2)cs1
Fusarium graminearum
  inhibition of growth at 50 ppm: 29.7%
Aspergillus niger
  inhibition of growth at 50 ppm: 52.3%
Pleurotus ostreatus
  inhibition of growth at 50 ppm: 72.4%
Pyricularia oryzae
  inhibition of growth at 50 ppm: 58.8%
Gaeumannomyces graminis
  inhibition of growth at 50 ppm: 51.3%
Botrytis cinerea
  inhibition of growth at 50 ppm: 0%
Pythium aphanidermatum
  inhibition of growth at 50 ppm: 3.8%

## N=C1SCC(=O)N1c1nc(-c2cc(F)c(Cl)cc2Cl)cs1
Fusarium graminearum
  inhibition of growth at 50 ppm: 38.8%
Aspergillus niger
  inhibition of growth at 50 ppm: 58.8%
Pleurotus ostreatus
  inhibition of growth at 50 ppm: 95%
Pyricularia oryzae
  inhibition of growth at 50 ppm: 76.3%
Gaeumannomyces graminis
  inhibition of growth at 50 ppm: 91.3%
Botrytis cinerea
  inhibition of growth at 50 ppm: 38.2%
Pythium aphanidermatum
  inhibition of growth at 50 ppm: 12.5%

## N=C1S/C(=C\c2ccccc2Cl)C(=O)N1c1nc(-c2ccc(Cl)cc2)cs1
Fusarium graminearum
  inhibition of growth at 50 ppm: 31.8%
Aspergillus niger
  inhibition of growth at 50 ppm: 40.8%
Pleurotus ostreatus
  inhibition of growth at 50 ppm: 0%
Pyricularia oryzae
  inhibition of growth at 50 ppm: 0%
Gaeumannomyces graminis
  inhibition of growth at 50 ppm: 0%
Botrytis cinerea
  inhibition of growth at 50 ppm: 0%
Pythium aphanidermatum
  inhibition of growth at 50 ppm: 46.2%
